Test results reported in patent US10933063B2 (priority 2017, dated 2021).

Target: BTK (Homo sapiens (Human), UniProt Q06187)
Experiment: biochemical

Chain of BTK (Q06187 whole entry, looked up, species assumed): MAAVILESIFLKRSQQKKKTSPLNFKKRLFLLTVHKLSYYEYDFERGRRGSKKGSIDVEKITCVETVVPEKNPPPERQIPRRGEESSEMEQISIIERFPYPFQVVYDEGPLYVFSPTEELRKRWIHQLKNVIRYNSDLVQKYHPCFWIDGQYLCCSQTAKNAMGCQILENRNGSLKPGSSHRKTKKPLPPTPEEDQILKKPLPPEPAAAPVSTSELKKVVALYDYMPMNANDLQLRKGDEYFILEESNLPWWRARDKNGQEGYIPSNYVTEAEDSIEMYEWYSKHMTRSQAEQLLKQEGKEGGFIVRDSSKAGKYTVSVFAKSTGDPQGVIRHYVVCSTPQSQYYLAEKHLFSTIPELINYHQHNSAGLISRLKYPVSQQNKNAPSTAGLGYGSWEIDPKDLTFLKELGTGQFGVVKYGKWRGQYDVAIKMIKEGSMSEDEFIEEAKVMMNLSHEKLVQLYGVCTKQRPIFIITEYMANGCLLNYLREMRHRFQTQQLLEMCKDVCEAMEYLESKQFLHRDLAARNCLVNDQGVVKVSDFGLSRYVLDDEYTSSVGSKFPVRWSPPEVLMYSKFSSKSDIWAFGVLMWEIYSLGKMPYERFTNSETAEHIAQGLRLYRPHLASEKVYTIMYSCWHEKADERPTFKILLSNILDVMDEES

Row | SMILES | IC50
1 | CC#CC(=O)N1CC[C@@H](c2nc(-c3ccc(Oc4cccc(OC)c4F)cc3)c3cncc(OCCN(C)C)n23)C1 [Example 90, (R)-1-(3-(5-(2-(dimethylamino)ethoxy)-1-(4-(2-fluoro-3-methoxyphenoxy)phenyl)imidazo[1,5-a]pyrazin-3-yl)pyrrolidin-1-yl)but-2-yn-1-one] | 10 to 100 nM
2 | CC#CC(=O)N1CCCC[C@H]1c1nc(-c2ccc(Oc3cccc(OC)c3F)cc2)c2c(C)ncc(C)n12 [Example 81, (S)-1-(2-(1-(4-(2-fluoro-3-methoxyphenoxy)phenyl)-5,8-dimethylimidazo[1,5-a]pyrazin-3-yl)piperidin-1-yl)but-2-yn-1-one] | 100 to 1000 nM
3 | COc1cccc(Oc2ccc(-c3nc([C@@H]4CCCN(C(=O)/C(C#N)=C/C(C)(C)C)C4)n4ccncc34)cc2)c1F [Example 2, (R,E)-2-(3-(1-(4-(2-Fluoro-3-methoxyphenoxy)phenyl)imidazo[1,5-a]pyrazin-3-yl)piperidine-1-carbonyl)-4,4-dimethylpent-2-enenitrile] | 10 to 100 nM
4 | C=CC(=O)N1CCCC[C@H]1c1nc(-c2ccc(Oc3cccc(OC)c3)cc2)c2cnccn12 [Example 58, (S)-1-(2-(1-(4-(3-methoxyphenoxy)phenyl)imidazo[1,5-a]pyrazin-3-yl)piperidin-1-yl)prop-2-en-1-one] | 10 to 100 nM
5 | CC#CC(=O)N1CCCC[C@H]1c1nc(-c2ccc(Oc3cccc(OC)c3F)cc2)c2c(C(=O)OC)nccn12 [Example 67, methyl (S)-3-(1-(but-2-ynoyl)piperidin-2-yl)-1-(4-(2-fluoro-3-methoxyphenoxy)phenyl)imidazo[1,5-a]pyrazine-8-carboxylate] | 1000 to 10000 nM
6 | CC#CC(=O)N1CC[C@@H](c2nc(-c3ccc(Oc4cccc(OC)c4F)cc3)c3cncc(OC4CCC4)n23)C1 [Example 101, (R)-1-(3-(5-cyclobutoxy-1-(4-(2-fluoro-3-methoxyphenoxy)phenyl)imidazo[1,5-a]pyrazin-3-yl)pyrrolidin-1-yl)but-2-yn-1-one] | 10 to 100 nM
7 | CC#CC(=O)N1CCCC[C@H]1c1nc(-c2ccc(C(=O)Nc3ccccn3)cc2)c2c(C)nccn12 [Example 171, (S)-4-(3-(1-(but-2-ynoyl)piperidin-2-yl)-8-methylimidazo[1,5-a]pyrazin-1-yl)-N-(pyridin-2-yl)benzamide] | 10 to 100 nM
8 | C=CC(=O)N1CCCC[C@H]1c1nc(-c2ccc(Oc3cccc(OC)c3F)cc2)c2cncc(C)n12 [Example 78, (S)-1-(2-(1-(4-(2-fluoro-3-methoxyphenoxy)phenyl)-5-methylimidazo[1,5-a]pyrazin-3-yl)piperidin-1-yl)prop-2-en-1-one] | 10 to 100 nM
9 | C=CC(=O)N1CCCC[C@H]1c1nc(-c2ccc(Oc3cccc(C)c3)cc2)c2cnccn12 [Example 50, (S)-1-(2-(1-(4-(m-tolyloxy)phenyl)imidazo[1,5-a]pyrazin-3-yl)piperidin-1-yl)prop-2-en-1-one] | 10 to 100 nM
10 | CC#CC(=O)N1CCC[C@@H](c2nc(-c3ccc(Oc4cccc(OC)c4F)cc3)c3cncc(C)n23)C1 [Example 71, (R)-1-(3-(1-(4-(2-fluoro-3-methoxyphenoxy)phenyl)-5-methylimidazo[1,5-a]pyrazin-3-yl)piperidin-1-yl)but-2-yn-1-one] | 100 to 1000 nM
11 | CC#CC(=O)N1CCC[C@H]1c1nc(-c2ccc(OCc3cccc(Cl)c3)cc2)c2cnccn12 [Example 142, (S)-1-(2-(1-(4-((3-chlorobenzyl)oxy)phenyl)imidazo[1,5-a]pyrazin-3-yl)pyrrolidin-1-yl)but-2-yn-1-one] | 1000 to 10000 nM
12 | CC#CC(=O)N1CC[C@@H](c2nc(-c3ccc(Oc4cccc(OC)c4F)cc3)c3cncc(C)n23)C1 [Example 73, (R)-1-(3-(1-(4-(2-fluoro-3-methoxyphenoxy)phenyl)-5-methylimidazo[1,5-a]pyrazin-3-yl)pyrrolidin-1-yl)but-2-yn-1-one] | 10 to 100 nM
13 | C=CC(=O)N1CCC[C@H]1c1nc(-c2ccc(COc3ccccc3)cc2)c2cnccn12 [Example 143, (S)-1-(2-(1-(4-(phenoxymethyl)phenyl)imidazo[1,5-a]pyrazin-3-yl)pyrrolidin-1-yl)prop-2-en-1-one] | 10 to 100 nM
14 | CC#CC(=O)N1CCC[C@@H](c2nc(-c3ccc(Oc4cccc(OC)c4F)cc3)c3c(C)ncc(C)n23)C1 [Example 77, (R)-1-(3-(1-(4-(2-fluoro-3-methoxyphenoxy)phenyl)-5,8-dimethylimidazo[1,5-a]pyrazin-3-yl)piperidin-1-yl)but-2-yn-1-one] | 100 to 1000 nM
15 | CC#CC(=O)N1CCC[C@H]1c1nc(-c2ccc(C(=O)Nc3ccccn3)cc2)c2c(C)ncc(C)n12 [Example 175, (S)-4-(3-(1-(but-2-ynoyl)pyrrolidin-2-yl)-5,8-dimethylimidazo[1,5-a]pyrazin-1-yl)-N-(pyridin-2-yl)benzamide] | 100 to 1000 nM
16 | C=CC(=O)N1CCCC[C@H]1c1nc(-c2ccc(OCc3cccc(F)c3)cc2)c2c(C)nccn12 [Example 139, (S)-1-(2-(1-(4-((3-fluorobenzyl)oxy)phenyl)-8-methylimidazo[1,5-a]pyrazin-3-yl)piperidin-1-yl)prop-2-en-1-one] | 10 to 100 nM
17 | C=CC(=O)N1CC[C@@H](c2nc(-c3ccc(Oc4cccc(OC)c4F)cc3)c3c(CCC)nccn23)C1 [Example 109, (R)-1-(3-(1-(4-(2-fluoro-3-methoxyphenoxy)phenyl)-8-propylimidazo[1,5-a]pyrazin-3-yl)pyrrolidin-1-yl)prop-2-en-1-one] | 100 to 1000 nM

Row | SMILES | IC50
18 | C=CC(=O)N1CC[C@@H](c2nc(-c3ccc(C(=O)Nc4ccccn4)cc3)c3c(C)ncc(C)n23)C1 [Example 182, (R)-4-(3-(1-acryloylpyrrolidin-3-yl)-5,8-dimethylimidazo [1,5-a]pyrazin-1-yl)-N-(pyridin-2-yl)benzamide] | 10 to 100 nM
19 | CC#CC(=O)N1CCC[C@H]1c1nc(-c2ccc(C(=O)Nc3ccccn3)cc2)c2cncc(C)n12 [Example 173, (S)-4-(3-(1-(but-2-ynoyl)pyrrolidin-2-yl)-5-methylimidazo[1,5-a]pyrazin-1-yl)-N-(pyridin-2-yl)benzamide] | 1000 to 10000 nM
20 | CC#CC(=O)N1CCCC[C@H]1c1nc(-c2ccc(COc3ccc(F)c(F)c3)cc2)c2c(C)nccn12 [Example 151, (S)-1-(2-(1-(4-((3,4-difluorophenoxy)methyl)phenyl)-8-methylimidazo[1,5-a]pyrazin-3-yl)piperidin-1-yl)but-2-yn-1-one] | 100 to 1000 nM
21 | CC#CC(=O)N1CC[C@@H](c2nc(-c3ccc(C(=O)Nc4ccccn4)cc3)c3c(C)ncc(C)n23)C1 [Example 183, (R)-4-(3-(1-(but-2-ynoyl)pyrrolidin-3-yl)-5,8-dimethylimidazo[1,5-a]pyrazin-1-yl)-N-(pyridin-2-yl)benzamide] | 100 to 1000 nM
22 | C=CC(=O)N1CCC[C@H]1c1nc(-c2ccc(OCc3cccc(Cl)c3)cc2)c2cnccn12 [Example 141, (S)-1-(2-(1-(4-((3-chlorobenzyl)oxy)phenyl)imidazo[1,5-a]pyrazin-3-yl)pyrrolidin-1-yl)prop-2-en-1-one] | 10 to 100 nM
23 | C=CC(=O)N1CCCC[C@H]1c1nc(-c2ccc(Oc3cccc(OC)c3F)cc2)c2c(C)ncc(C)n12 [Example 80, (S)-1-(2-(1-(4-(2-fluoro-3-methoxyphenoxy)phenyl)-5,8-dimethylimidazo[1,5-a]pyrazin-3-yl)piperidin-1-yl)prop-2-en-1-one] | 10 to 100 nM
24 | CC#CC(=O)N1CCCC[C@H]1c1nc(-c2ccc(Oc3cccc(OC)c3F)cc2)c2cnccn12 [Example 25, (S)-1-(2-(1-(4-(2-fluoro-3-methoxyphenoxy)phenyl)imidazo[1,5-a]pyrazin-3-yl)piperidin-1-yl)but-2-yn-1-one] | 10 to 100 nM
25 | C=CC(=O)N1CCCC[C@H]1c1nc(-c2ccc(COc3cccc(F)c3F)cc2)c2cnccn12 [Example 158, (S)-1-(2-(1-(4-((2,3-difluorophenoxy)methyl)phenyl)imidazo[1,5-a]pyrazin-3-yl)piperidin-1-yl)prop-2-en-1-one] | 100 to 1000 nM
26 | C=CC(=O)N1CCCC[C@H]1c1nc(-c2ccc(C(=O)Nc3ccccn3)cc2)c2cnccn12 [Example 168, (S)-4-(3-(1-acryloylpiperidin-2-yl)imidazo[1,5-a]pyrazin-1-yl)-N-(pyridin-2-yl) benzamide] | 10 to 100 nM
27 | CC#CC(=O)N1CCC[C@H]1c1nc(-c2ccc(COc3ccc(F)c(F)c3)cc2)c2cnccn12 [Example 132, (S)-l-(2-(1-(4-((3,4-difluorophenoxy)methyl)phenyl)imidazo[1,5-a]pyrazin-3-yl)pyrrolidin-1-yl)but-2-yn-1-one] | 1000 to 10000 nM
28 | C=CC(=O)N1CC[C@@H](c2nc(-c3ccc(Oc4cccc(OC)c4F)cc3)c3cncc(C)n23)C1 [Example 72, (R)-1-(3-(1-(4-(2-fluoro-3-methoxyphenoxy)phenyl)-5-methylimidazo[1,5-a]pyrazin-3-yl)pyrrolidin-1-yl)prop-2-en-1-one] | 10 to 100 nM
29 | CC#CC(=O)N1CCC[C@H]1c1nc(-c2ccc(Oc3cccc(F)c3)cc2)c2cnccn12 [Example 7, (S)-1-(2-(1-(4-(3-fluorophenoxy)phenyl)imidazo[1,5-a]pyrazin-3-yl)pyrrolidin-1-yl)but-2-yn-1-one] | 10 to 100 nM
30 | CC#CC(=O)N1CC[C@@H](c2nc(-c3ccc(C(=O)Nc4cc(C(F)(F)F)ccn4)cc3)c3cnccn23)C1 [Example 211, (R)-4-(3-(1-(but-2-ynoyl)pyrrolidin-3-yl)imidazo[1,5-a]pyrazin-1-yl)-N-(4-(trifluoromethyl)pyridin-2-yl)benzamide] | 10 to 100 nM
31 | COc1cccc(Oc2ccc(-c3nc([C@@H]4CCCN4C(=O)/C(C#N)=C/C(C)(C)C)n4ccncc34)cc2)c1F [Example 31, (S,E)-2-(2-(1-(4-(2-fluoro-3-methoxyphenoxy)phenyl)imidazo[1,5-a]pyrazin-3-yl)pyrrolidine-1-carbonyl)-4,4-dimethylpent-2-enenitrile] | 100 to 1000 nM
32 | CC#CC(=O)N1CCC[C@H]1c1nc(-c2ccc(Oc3cccc(OC)c3F)cc2)c2c(C)nccn12 [Example 57, (S)-1-(2-(1-(4-(2-fluoro-3-methoxyphenoxy)phenyl)-8-methylimidazo[1,5-a]pyrazin-3-yl)pyrrolidin-1-yl)but-2-yn-1-one] | 10 to 100 nM
33 | CC#CC(=O)N1CC[C@@H](c2nc(-c3ccc(C(=O)Nc4cc(C(F)(F)F)ccn4)cc3F)c3cnccn23)C1 [Example 212, (R)-4-(3-(1-(but-2-ynoyl)pyrrolidin-3-yl)imidazo [1,5-a]pyrazin-1-yl)-3-fluoro-N-(4-(trifluoromethyl)pyridin-2-yl)benzamide] | 10 to 100 nM
